Experimental data reported in US20230265151A1, “GIP/GLP1 CO-AGONIST COMPOUNDS” (priority 2020, published 2023).
Like-named read-outs stand apart in the source and are kept apart here.

Experiments:
Assay type in all cases: cell-based
hGIPR = molecular target: T1, hGIPR (Homo sapiens, UniProt P48546); assay: Functional cAMP formation (HTRF) in HEK-293 clonal cells expressing hGIPR, 0.1% bovine casein, without or with 1.0% human serum albumin; conditions: for EC50: geometric mean; for Emax: percent of maximal response to GIP(1-42)NH2
T1 construct: expressed in transfected cells
T1 sequence (P48546 22-466): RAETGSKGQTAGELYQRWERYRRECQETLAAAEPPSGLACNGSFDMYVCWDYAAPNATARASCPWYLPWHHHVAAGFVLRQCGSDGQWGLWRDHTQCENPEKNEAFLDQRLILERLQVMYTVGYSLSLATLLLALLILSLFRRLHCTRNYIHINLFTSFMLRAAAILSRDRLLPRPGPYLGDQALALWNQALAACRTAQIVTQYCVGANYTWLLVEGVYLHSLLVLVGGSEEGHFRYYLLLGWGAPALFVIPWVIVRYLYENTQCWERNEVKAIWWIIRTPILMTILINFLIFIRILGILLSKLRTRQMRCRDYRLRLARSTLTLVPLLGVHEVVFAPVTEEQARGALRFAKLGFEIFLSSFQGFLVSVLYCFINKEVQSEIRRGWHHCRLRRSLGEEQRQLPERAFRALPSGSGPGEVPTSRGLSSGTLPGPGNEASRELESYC
Outline: (§1)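 Cells were stimulated with peptide for 30 min at 37° C, then lysed in buffer carrying cAMP-d2 and anti-cAMP Eu3+-cryptate for a competitive HTRF read after at least 60 min at room temperature. The 665/620 nm ratio was converted to nM cAMP against a standard curve.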

hGLP-1R = hGLP-1R (Homo sapiens, UniProt P43220); assay: Functional cAMP formation (HTRF) in HEK-293 clonal cells expressing hGLP-1R, 0.1% bovine casein, without or with 1.0% human serum albumin; set-up: expressed in transfected cells; conditions: for Emax: percent of maximal response to GLP-1(7-36)NH2; for EC50: geometric mean, read-out: hGLP-1R EC50, nM (SEM, n)
Outline: as §1

hGCGR = molecular target: T2, hGCGR (Homo sapiens, UniProt P47871); assay: Functional cAMP formation (HTRF) in HEK-293 clonal cells expressing hGCGR, 0.1% bovine casein, without or with 1.0% human serum albumin; conditions: 37° C., geometric mean
T2 construct: expressed in transfected cells
Outline: as §1

[1] = HEK293, 0.1% bovine casein and 1.0% human serum albumin, 37° C., read-out: hGIPR Emax, % ± SEM
[2] = HEK293, cAMP, 37° C., 0.1% bovine casein, arithmetic mean, read-out: hGIPR Emax, % ± SEM
[3] = HEK293, 0.1% bovine casein and 1.0% human serum albumin, 37° C., read-out: hGLP-1R Emax, % ± SEM
[4] = HEK293, cAMP, 37° C., 0.1% bovine casein, arithmetic mean, read-out: hGLP-1R Emax, % ± SEM
[5] = cAMP, 37° C., 0.1% bovine casein (no human serum albumin)
[6] = 0.1% bovine casein and 1.0% human serum albumin, read-out: hGCGR EC50, nM (SEM, n)
[7] = cAMP, 0.1% bovine casein (no human serum albumin), read-out: hGCGR EC50, nM (SEM, n)
[8] = 0.1% bovine casein and 1.0% human serum albumin, 37° C.
[9] = cAMP, 37° C., 0.1% bovine casein (no human serum albumin), read-out: hGIPR EC50, nM (SEM, n)

T2 sequence (P47871 26-477): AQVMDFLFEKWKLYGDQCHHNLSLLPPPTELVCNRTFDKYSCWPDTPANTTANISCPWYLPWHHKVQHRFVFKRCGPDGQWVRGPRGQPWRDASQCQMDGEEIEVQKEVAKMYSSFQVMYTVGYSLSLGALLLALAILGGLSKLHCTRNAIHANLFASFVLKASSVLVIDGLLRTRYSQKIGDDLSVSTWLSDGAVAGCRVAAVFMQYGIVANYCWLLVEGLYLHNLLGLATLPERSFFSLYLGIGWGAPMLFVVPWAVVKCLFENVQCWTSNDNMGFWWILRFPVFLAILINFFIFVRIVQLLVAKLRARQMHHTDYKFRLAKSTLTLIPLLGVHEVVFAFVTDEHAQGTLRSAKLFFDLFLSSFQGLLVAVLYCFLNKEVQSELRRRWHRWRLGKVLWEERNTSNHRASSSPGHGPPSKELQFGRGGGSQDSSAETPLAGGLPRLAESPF
Chain of hGLP-1R (P43220 24-463): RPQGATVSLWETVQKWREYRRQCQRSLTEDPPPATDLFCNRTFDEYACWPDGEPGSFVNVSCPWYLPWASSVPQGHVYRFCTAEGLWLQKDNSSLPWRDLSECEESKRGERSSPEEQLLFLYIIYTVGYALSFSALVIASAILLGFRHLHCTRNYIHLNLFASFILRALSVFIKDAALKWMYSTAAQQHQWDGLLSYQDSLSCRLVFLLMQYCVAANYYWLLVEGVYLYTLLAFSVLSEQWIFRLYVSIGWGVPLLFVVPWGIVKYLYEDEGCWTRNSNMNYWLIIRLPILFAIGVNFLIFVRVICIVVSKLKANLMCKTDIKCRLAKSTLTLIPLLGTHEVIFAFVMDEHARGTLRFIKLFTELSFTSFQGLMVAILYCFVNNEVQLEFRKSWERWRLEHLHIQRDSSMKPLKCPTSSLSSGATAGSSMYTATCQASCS

| SMILES | EC50 (hGIPR; 0.1% bovine casein and 1.0% human serum albumin, 37° C., read-out: hGIPR EC50, nM (SEM, n)) | Emax (hGIPR; [1]) | Emax (hGIPR; [2]) | Emax (hGLP-1R; [3]) | Emax (hGLP-1R; [4]) | EC50 (hGLP-1R; [5]) | EC50 (hGCGR; [6]) | EC50 (hGCGR; [7]) | EC50 (hGLP-1R; [8]) | EC50 (hGIPR; [9]) | Emax (hGIPR; HEK293, read-out: hGIPR Emax, % ± SEM, 0.1% bovine casein and 1.0% human serum albumin, 37° C.) | EC50 (hGIPR; hGIPR EC50, nM (SEM, n), cAMP, 37° C., 0.1% bovine casein (no human serum albumin)) | Emax (hGLP-1R; HEK293, read-out: hGLP-1R Emax, % ± SEM, 0.1% bovine casein and 1.0% human serum albumin, 37° C.) | EC50 (hGCGR; hGCGR EC50, nM (SEM, n), 0.1% bovine casein and 1.0% human serum albumin) | EC50 (hGCGR; hGCGR EC50, nM (SEM, n), cAMP, 0.1% bovine casein (no human serum albumin)) |
| --- | --- | --- | --- | --- | --- | --- | --- | --- | --- | --- | --- | --- | --- | --- | --- |
| CCCC[C@H](NC(=O)[C@H](CC(=O)O)NC(=O)[C@H](CO)NC(=O)[C@@H](NC(=O)[C@](C)(Cc1ccccc1F)NC(=O)[C@@H](NC(=O)CNC(=O)[C@H](CCC(=O)O)NC(=O)C(C)(C)NC(=O)[C@@H](N)Cc1ccc(O)cc1)[C@@H](C)O)[C@@H](C)O)C(=O)N[C@@H](CO)C(=O)N[C@H](C(=O)N[C@@](C)(CC(C)C)C(=O)N[C@@H](CC(C)C)C(=O)N[C@@H](CC(=O)O)C(=O)N[C@@H](CCCN)C(=O)N[C@H](C(=O)N[C@@H](C)C(=O)N[C@@H](CCC(N)=O)C(=O)NC(C)(C)C(=O)N[C@@H](CCC(=O)O)C(=O)N[C@@H](Cc1ccccc1)C(=O)N[C@H](C(=O)N[C@@H](CCCCNC(=O)COCCOCCNC(=O)COCCOCCNC(=O)CC[C@H](NC(=O)CCCCCCCCCCCCC(=O)O)C(=O)O)C(=O)N[C@@](C)(Cc1ccc(O)cc1)C(=O)N[C@@H](CC(C)C)C(=O)N[C@H](C(=O)N[C@@H](CCCCNC(=O)COCCOCCNC(=O)COCCOCCNC(=O)CC[C@H](NC(=O)CCCCCCCCCCCCC(=O)O)C(=O)O)C(=O)NCC(=O)NCC(=O)N1CCC[C@H]1C(=O)N[C@@H](CO)C(=O)N[C@@H](CO)C(=O)NCC(=O)N[C@@H](C)C(=O)N1CCC[C@H]1C(=O)N1CCC[C@H]1C(=O)N1CCC[C@H]1C(=O)N[C@@H](CO)C(N)=O)[C@@H](C)CC)[C@@H](C)CC)[C@@H](C)CC)[C@@H](C)CC [Example 269] | 2.65 nM | 87.3% | 95.3% | 105% | 96.5% | 1.72 nM | > 9950 nM | > 9950 nM | – | – | – | – | – | – | – |
| CC[C@H](C)[C@H](NC(=O)[C@H](CCCN)NC(=O)[C@H](CC(=O)O)NC(=O)[C@H](CC(C)C)NC(=O)[C@](C)(CC(C)C)NC(=O)[C@@H](NC(=O)[C@H](CO)NC(=O)[C@H](CCc1ccc(O)cc1)NC(=O)[C@H](CC(=O)O)NC(=O)[C@H](CO)NC(=O)[C@@H](NC(=O)[C@](C)(Cc1ccccc1F)NC(=O)[C@@H](NC(=O)CNC(=O)[C@H](CCC(=O)O)NC(=O)C(C)(C)NC(=O)[C@@H](N)Cc1ccc(O)cc1)[C@@H](C)O)[C@@H](C)O)[C@@H](C)CC)C(=O)N[C@@H](C)C(=O)N[C@@H](CCC(N)=O)C(=O)NC(C)(C)C(=O)N[C@@H](CCC(=O)O)C(=O)N[C@@H](Cc1ccccc1)C(=O)N[C@H](C(=O)N[C@@H](CCCCNC(=O)COCCOCCNC(=O)COCCOCCNC(=O)CC[C@H](NC(=O)CCCCCCCCCCCCC(=O)O)C(=O)O)C(=O)N[C@@](C)(Cc1ccc(O)cc1)C(=O)N[C@@H](CC(C)C)C(=O)N[C@H](C(=O)N[C@@H](CCCCNC(=O)COCCOCCNC(=O)COCCOCCNC(=O)CC[C@H](NC(=O)CCCCCCCCCCCCC(=O)O)C(=O)O)C(=O)NCC(=O)NCC(=O)N1CCC[C@H]1C(=O)N[C@@H](CO)C(=O)N[C@@H](CO)C(=O)NCC(=O)N[C@@H](C)C(=O)N1CCC[C@H]1C(=O)N1CCC[C@H]1C(=O)N1CCC[C@H]1C(=O)N[C@@H](CO)C(N)=O)[C@@H](C)CC)[C@@H](C)CC [Example 270] | – | 80.9% | 91.7% | 111% | 97% | – | > 9950 nM | > 9950 nM | 32.6 nM | – | – | – | – | – | – |
| CCCC[C@H](NC(=O)[C@H](CC(=O)O)NC(=O)[C@H](CO)NC(=O)[C@@H](NC(=O)[C@](C)(Cc1ccccc1F)NC(=O)[C@@H](NC(=O)CNC(=O)[C@H](CCC(=O)O)NC(=O)C(C)(C)NC(=O)[C@@H](N)Cc1ccc(O)cc1)[C@@H](C)O)[C@@H](C)O)C(=O)N[C@@H](CO)C(=O)N[C@H](C(=O)N[C@@](C)(CC(C)C)C(=O)N[C@@H](CC(C)C)C(=O)N[C@@H](CC(=O)O)C(=O)N[C@@H](CCCN)C(=O)N[C@@H](CCCCNC(=O)COCCOCCNC(=O)COCCOCCNC(=O)CCCCCCCCCCCCC(=O)O)C(=O)N[C@@H](C)C(=O)N[C@@H](CCC(N)=O)C(=O)NC(C)(C)C(=O)N[C@@H](CCCCNC(=O)COCCOCCNC(=O)COCCOCCNC(=O)CCCCCCCCCCCCC(=O)O)C(=O)N[C@@H](Cc1ccccc1)C(=O)N[C@H](C(=O)N[C@H](CCC(=O)O)C(=O)N[C@@](C)(Cc1ccc(O)cc1)C(=O)N[C@@H](CC(C)C)C(=O)N[C@H](C(=O)N[C@@H](CCC(=O)O)C(=O)NCC(=O)NCC(=O)N1CCC[C@H]1C(=O)N[C@@H](CO)C(=O)N[C@@H](CO)C(=O)NCC(=O)N[C@@H](C)C(=O)N1CCC[C@H]1C(=O)N1CCC[C@H]1C(=O)N1CCC[C@H]1C(=O)N[C@@H](CO)C(N)=O)[C@@H](C)CC)[C@@H](C)CC)[C@@H](C)CC [Example 271] | – | 97.3% | – | 122% | – | – | > 9950 nM | > 9950 nM | 10.2 nM | 0.0186 nM | – | – | – | – | – |
| CC[C@H](C)[C@H](NC(=O)[C@H](CC(C)C)NC(=O)[C@](C)(Cc1ccc(O)cc1)NC(=O)[C@@H](CCC(=O)O)NC(=O)[C@@H](NC(=O)[C@H](Cc1ccccc1)NC(=O)[C@H](CCCCNC(=O)COCCOCCNC(=O)COCCOCCNC(=O)CCCCCCCCCCCCC(=O)O)NC(=O)C(C)(C)NC(=O)[C@H](CCC(N)=O)NC(=O)[C@H](C)NC(=O)[C@H](CCCCNC(=O)COCCOCCNC(=O)COCCOCCNC(=O)CCCCCCCCCCCCC(=O)O)NC(=O)[C@H](CCCN)NC(=O)[C@H](CC(=O)O)NC(=O)[C@H](CC(C)C)NC(=O)[C@](C)(CC(C)C)NC(=O)[C@@H](NC(=O)[C@H](CO)NC(=O)[C@H](CCc1ccc(O)cc1)NC(=O)[C@H](CC(=O)O)NC(=O)[C@H](CO)NC(=O)[C@@H](NC(=O)[C@](C)(Cc1ccccc1F)NC(=O)[C@@H](NC(=O)CNC(=O)[C@H](CCC(=O)O)NC(=O)C(C)(C)NC(=O)[C@@H](N)Cc1ccc(O)cc1)[C@@H](C)O)[C@@H](C)O)[C@@H](C)CC)[C@@H](C)CC)C(=O)N[C@@H](CCC(=O)O)C(=O)NCC(=O)NCC(=O)N1CCC[C@H]1C(=O)N[C@@H](CO)C(=O)N[C@@H](CO)C(=O)NCC(=O)N[C@@H](C)C(=O)N1CCC[C@H]1C(=O)N1CCC[C@H]1C(=O)N1CCC[C@H]1C(=O)N[C@@H](CO)C(N)=O [Example 272] | – | 81.2% | 86% | – | – | 0.388 nM | > 9950 nM | > 9950 nM | – | 0.0264 nM | – | – | – | – | – |
| CC[C@H](C)[C@H](NC(=O)[C@H](CC(C)C)NC(=O)[C@](C)(Cc1ccc(O)cc1)NC(=O)[C@@H](CCC(=O)O)NC(=O)[C@@H](NC(=O)[C@H](Cc1ccccc1)NC(=O)[C@H](CCC(=O)O)NC(=O)C(C)(C)NC(=O)[C@H](CCC(N)=O)NC(=O)[C@H](C)NC(=O)[C@H](CCCCNC(=O)COCCOCCNC(=O)COCCOCCNC(=O)CC[C@H](NC(=O)CCCCCCCCCOc1ccc(C(=O)O)cc1)C(=O)O)NC(=O)[C@H](CCCN)NC(=O)[C@H](CC(=O)O)NC(=O)[C@H](CC(C)C)NC(=O)[C@](C)(CC(C)C)NC(=O)[C@@H](NC(=O)[C@H](CO)NC(=O)[C@H](Cc1ccncc1)NC(=O)[C@H](CC(=O)O)NC(=O)[C@H](CO)NC(=O)[C@@H](NC(=O)[C@](C)(Cc1ccccc1F)NC(=O)[C@@H](NC(=O)CNC(=O)[C@H](CCC(=O)O)NC(=O)C(C)(C)NC(=O)[C@@H](N)Cc1ccc(O)cc1)[C@@H](C)O)[C@@H](C)O)[C@@H](C)CC)[C@@H](C)CC)C(=O)N[C@@H](CCC(=O)O)C(=O)NCC(=O)NCC(=O)N1CCC[C@H]1C(=O)N[C@@H](CO)C(=O)N[C@@H](CO)C(=O)NCC(=O)N[C@@H](C)C(=O)N1CCC[C@H]1C(=O)N1CCC[C@H]1C(=O)N1CCC[C@H]1C(=O)N[C@@H](CO)C(=O)N[C@@H](CCCCNC(=O)COCCOCCNC(=O)COCCOCCNC(=O)CC[C@H](NC(=O)CCCCCCCCCOc1ccc(C(=O)O)cc1)C(=O)O)C(N)=O [Example 273] | – | – | – | – | – | – | – | – | – | – | 88.4% | 0.0166 nM | 90.5% | > 9950 nM | > 9950 nM |
